# Experimental data taken from PubChem BioAssay AID1963845 (Molecular Pharmacology Branch, DTP, NCI, 2024).
# Tested on: 429239-143-T-J1-PDC complex spheroid viability
# Experiment: Anticancer human tumor 429239-143-T-J1-PDC patient-derived small cell lung carcinoma cell line growth inhibition [POLQ]
# Conditions: for IC50: curve of first compound; for viability, T/C: stronger effect = lower value
# Experimental: Multicellular complex tumor spheroid response to Polymerase (POL) inhibitors (novobiocin, ART-558, RP6685) in combination with a variety of drugs and investigational agents in selected tumor cell lines
# The POL inhibitors (novobiocin, ART-558, and RP6685) were evaluated both individually and in combination with standard of care and investigational anticancer small molecules within a complex spheroid model of solid tumors. . Complex spheroids include a stromal component modeled by human endothelial cells (HUVEC) and fibroblasts modeled by human mesenchymal stem cells (MSCs). The concentration ranges selected for each drug and investigational agent were based upon clinically achievable concentrations if the clinical Cmax of the agent was known.
# Compounds. The drugs and investigational agents: novobiocin (NSC847541), ART-558 (NSC835418), RP-6685 (NSC848927), peposertib (NSC802822), ceralasertib (NSC780249), elimusertib (NSC800525), camonsertib (NSC841442), AZD-1390 (NSC803789), olaparib (NSC753686), talazoparib (NSC767125), rucaparib (NSC756644), sotorasib (NSC818433), MRTX-1133 (NSC836407), SN-38 (NSC673596), topotecan (NSC609699), epotoside (NSC141540), doxorubicin (NSC123127), gemcitabine (NSC613327), 5-fluorouracil (NSC19893), paclitaxel (NSC125973), vemurafenib (NSC761431), MSA-2 (NSC828583), SN-011 (NSC837082), adavosertib (NSC754352), prexasertib (NSC758257), carboplatin (NSC241240) and oxaliplatin (NSC266046), were obtained from the National Cancer Institute (NCI) Developmental Therapeutics Program Chemical Repository (21). The FDA-approved anticancer drug set is available from the Developmental Therapeutics Program at https://dtp.cancer.gov/organization/dscb/obtaining/. […] The stock solutions were prepared in dimethyl sulfoxide (DMSO, Sigma-Aldrich, St. Louis, MO, cat. D2650), except for the platinum compounds which were prepared in saline (Quality Biological, Gaithersburg, MD, cat. 114-055-101), at 800-fold the tested concentration and stored at -70 degrees C prior to their use. All drugs and investigational agents were tested over a range starting from a high concentration at or near the clinical Cmax and decreasing in half-log increments. If the clinical Cmax for an agent had not been determined, the highest concentration tested was 10 microM, except for SN-38, which was tested at a high concentration of 1 microM.
# Cell Culture. All cells were maintained in an incubator at 37 degrees C and 5% CO2 with 95% humidity. The PDC lines were cultured according to standard operating procedures established by the NCI PDMR (https://pdmr.cancer.gov). Table 3 of the manuscript, lists the cell lines along with the number of the three cell types plated to form the mct-spheroids and media for tumor cell growth. After thawing, all PDC lines, except 997537-175-T-J1-PDC and 415267-285-R-J2-PDC, were cultured in Matrigel-coated flasks prepared with a working solution of 1X Ham's F-12 nutrient mix, without supplementation (Thermo Fisher Scientific, cat. 11765054), 100 U/mL penicillin-streptomycin (Thermo Fisher Scientific, cat. 15140122), and 2.5% Matrigel (Corning Inc., Corning, NY, cat. 354248) for the first three passages. The two PDC lines 997537-175-T-J1-PDC and 415267-285-R-J2-PDC were cultured on uncoated flasks. The 857933-349-R-J2-PDC line was cultured in 6C/Colon 1B media containing advanced DMEM/F-12 (Thermo Fisher Scientific, cat. 12634028), 10 mM HEPES (Thermo Fisher Scientific, cat. 15630080), 1X GlutaMAX supplement (Thermo Fisher Scientific, cat. 35050061), 0.1 mg/mL primocin (InvivoGen, San Diego, CA, cat. ant-pm-2), 10% defined fetal bovine serum, heat inactivated (HyClone Laboratories Inc., Logan, UT, cat. SH30070.03HI), 50% L-WRN conditioned media (ATCC, cat. CRL-3276), 1.25 mM N-Acetyl-L-cysteine (Sigma-Aldrich, cat. A9165), 10 mM nicotinamide (Sigma-Aldrich, cat. N0636), 1X B-27 supplement (Thermo Fisher Scientific, cat. 17504044), 1X N-2 supplement (Thermo Fisher Scientific, cat. […]
# 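Further: luminescence signal used as surrogate measure of viable cells; spheroids exposed to compounds for seven days before readout.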
# 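Wherever viability, T/C is given: 100% = DMSO vehicle control viability as luminescence relative to vehicle.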
smiles,measurement,setting,value
CCc1cc2c(N3CCc4c(cc(Cn5ccnc5)cc4-c4cn(C)nc4C(F)(F)F)C3=O)cc(C)nc2c(OC)n1 + Cc1cccc(N(C)C(=O)C2C(O)CCN2c2nc(C)cc(C(F)(F)F)c2C#N)c1,IC50,second compound 0.0316 µM,> 10 µM
same,IC50,second compound 0.1 µM,> 10 µM
same,IC50,second compound 0.316 µM,8.03 µM
same,IC50,second compound 1 µM,8.37 µM
same,IC50,second compound 3.16 µM,> 10 µM
same,IC50,second compound 10 µM,4.71 µM
same,"viability, T/C","second compound 0.0316 µM, first compound 0.0316 µM",110%
same,"viability, T/C","second compound 0.0316 µM, first compound 0.1 µM",97.7%
same,"viability, T/C","second compound 0.0316 µM, first compound 0.316 µM",95%
same,"viability, T/C","second compound 0.0316 µM, first compound 1 µM",85.6%
same,"viability, T/C","second compound 0.0316 µM, first compound 3.16 µM",72.7%
same,"viability, T/C","second compound 0.0316 µM, first compound 10 µM",48.5%
same,"viability, T/C","second compound 0.1 µM, first compound 0.0316 µM",104%
same,"viability, T/C","second compound 0.1 µM, first compound 0.1 µM",104%
same,"viability, T/C","second compound 0.1 µM, first compound 0.316 µM",87.6%
same,"viability, T/C","second compound 0.1 µM, first compound 1 µM",79%
same,"viability, T/C","second compound 0.1 µM, first compound 3.16 µM",74.5%
same,"viability, T/C","second compound 0.1 µM, first compound 10 µM",49.8%
same,"viability, T/C","second compound 0.316 µM, first compound 0.0316 µM",104%
same,"viability, T/C","second compound 0.316 µM, first compound 0.1 µM",99.6%
same,"viability, T/C","second compound 0.316 µM, first compound 0.316 µM",92.3%
same,"viability, T/C","second compound 0.316 µM, first compound 1 µM",78.2%
same,"viability, T/C","second compound 0.316 µM, first compound 3.16 µM",78.8%
same,"viability, T/C","second compound 0.316 µM, first compound 10 µM",42.5%
same,"viability, T/C","second compound 1 µM, first compound 0.0316 µM",108%
same,"viability, T/C","second compound 1 µM, first compound 0.1 µM",96.1%
same,"viability, T/C","second compound 1 µM, first compound 0.316 µM",91.8%
same,"viability, T/C","second compound 1 µM, first compound 1 µM",85%
same,"viability, T/C","second compound 1 µM, first compound 3.16 µM",74.3%
same,"viability, T/C","second compound 1 µM, first compound 10 µM",44.1%
same,"viability, T/C","second compound 3.16 µM, first compound 0.0316 µM",105%
same,"viability, T/C","second compound 3.16 µM, first compound 0.1 µM",101%
same,"viability, T/C","second compound 3.16 µM, first compound 0.316 µM",91.6%
same,"viability, T/C","second compound 3.16 µM, first compound 1 µM",90.6%
same,"viability, T/C","second compound 3.16 µM, first compound 3.16 µM",77.5%
same,"viability, T/C","second compound 3.16 µM, first compound 10 µM",54.6%
same,"viability, T/C","second compound 10 µM, first compound 0.0316 µM",108%
same,"viability, T/C","second compound 10 µM, first compound 0.1 µM",98.9%
same,"viability, T/C","second compound 10 µM, first compound 0.316 µM",85.3%
same,"viability, T/C","second compound 10 µM, first compound 1 µM",82.5%
same,"viability, T/C","second compound 10 µM, first compound 3.16 µM",63.3%
same,"viability, T/C","second compound 10 µM, first compound 10 µM",28.6%
